Laboratory results from the supplement of paper PMC10307832.

Columns and labels:
Test in all cases: relative viability (nuclei count vs DMSO), 5 days (fraction); higher = more cells survive
[1] = system: NCI-H2126
Summary of the method: (§1)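 Lung cancer cell lines were seeded in 1536-well plates and dosed by pin tool the next day, with either a single drug or a fixed anchor-drug dose combined with five library-drug doses (not always all listed) spaced in √10 steps. Five days later, one step fixed the cells and stained their nuclei (final 0.05% Triton X-100, 1% formaldehyde, 1 ug/ml Hoechst), and nuclei were counted on 4× images. Relative viability is the nuclei count in treated wells divided by the count in vehicle wells, and each value is the median of duplicate plates.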

[2] = system: NCI-H1793
Summary of the method: as §1

[3] = system: EPLC-272H
Summary of the method: as §1

[4] = system: EKVX
Summary of the method: as §1

[5] = system: NCI-H1650
Summary of the method: as §1

[6] = system: NCI-H322M
Summary of the method: as §1

[7] = system: SK-LU-1
Summary of the method: as §1

[8] = system: EMC-BAC-2
Summary of the method: as §1

[9] = system: NCI-H1651
Summary of the method: as §1

[10] = system: NCI-H2087
Summary of the method: as §1

[11] = system: SW 1573
Summary of the method: as §1

[12] = system: A-427
Summary of the method: as §1

[13] = system: 201T
Summary of the method: as §1

[14] = system: NCI-H596
Summary of the method: as §1

[15] = system: COR-L23
Summary of the method: as §1

[16] = system: UMC-11
Summary of the method: as §1

[17] = system: NCI-H2023
Summary of the method: as §1

[18] = system: NCI-H3122
Summary of the method: as §1

[19] = system: BEN
Summary of the method: as §1

[20] = system: LXF-289
Summary of the method: as §1

[21] = system: HCC-44
Summary of the method: as §1

For `Oc1nc(-c2ccc(C(F)(F)F)cc2)nc2c1CSCC2` [XAV939] + CC1(C)CCC(c2ccc(Cl)cc2)=C(CN2CCN(c3ccc(C(=O)NS(=O)(=O)c4ccc(N[C@H](CCN5CCOCC5)CSc5ccccc5)c(S(=O)(=O)C(F)(F)F)c4)cc3)CC2)C1 [Navitoclax] (partner 0.5 µM), the relative viability ([1]; first compound 0.08 µM) was 0.773, the relative viability ([1]; first compound 0.253 µM) was 0.653 and the relative viability ([1]; first compound 0.8 µM) was 0.813. It also gave a relative viability ([1]; first compound 2.53 µM) of 0.739, a relative viability ([2]; first compound 0.08 µM) of 0.593 and a relative viability ([2]; first compound 0.253 µM) of 0.442. For the same molecule, the relative viability ([2]; first compound 0.8 µM) was 0.369, the relative viability ([2]; first compound 2.53 µM) was 0.452 and the relative viability ([3]; first compound 0.08 µM) was 1.18. It also gave a relative viability ([3]; first compound 0.253 µM) of 1.08, a relative viability ([3]; first compound 0.8 µM) of 1.19 and a relative viability ([3]; first compound 2.53 µM) of 1.11. The relative viability ([4]; first compound 0.08 µM) was 1.02, the relative viability ([4]; first compound 0.253 µM) was 0.814 and the relative viability ([4]; first compound 0.8 µM) was 0.57. The relative viability ([4]; first compound 2.53 µM) was 0.557, the relative viability ([5]; first compound 0.08 µM) was 1.18 and the relative viability ([5]; first compound 0.253 µM) was 1.25. It also gave a relative viability ([5]; first compound 0.8 µM) of 1.05, a relative viability ([5]; first compound 2.53 µM) of 0.653 and a relative viability ([6]; first compound 0.08 µM) of 1.26. It also gave a relative viability ([6]; first compound 0.253 µM) of 0.748, a relative viability ([6]; first compound 0.8 µM) of 1.21 and a relative viability ([6]; first compound 2.53 µM) of 1.03. For the same molecule, the relative viability ([7]; first compound 0.08 µM) was 0.674, the relative viability ([7]; first compound 0.253 µM) was 0.9 and the relative viability ([7]; first compound 0.8 µM) was 0.714. It also gave a relative viability ([7]; first compound 2.53 µM) of 0.791, a relative viability ([8]; first compound 0.08 µM) of 1.28 and a relative viability ([8]; first compound 0.253 µM) of 1.04. For the same molecule, the relative viability ([8]; first compound 0.8 µM) was 1.1, the relative viability ([8]; first compound 2.53 µM) was 0.793 and the relative viability ([9]; first compound 0.08 µM) was 1.12. For the same molecule, the relative viability ([9]; first compound 0.253 µM) was 1.01, the relative viability ([9]; first compound 0.8 µM) was 0.995 and the relative viability ([9]; first compound 2.53 µM) was 0.894. The relative viability ([10]; first compound 0.08 µM) was 1.13, the relative viability ([10]; first compound 0.253 µM) was 0.668 and the relative viability ([10]; first compound 0.8 µM) was 1. The relative viability ([10]; first compound 2.53 µM) was 0.95, the relative viability ([11]; first compound 0.08 µM) was 1.16 and the relative viability ([11]; first compound 0.253 µM) was 0.957. For the same molecule, the relative viability ([11]; first compound 0.8 µM) was 0.83, the relative viability ([11]; first compound 2.53 µM) was 0.792 and the relative viability ([12]; first compound 0.08 µM) was 1.03. It also gave a relative viability ([12]; first compound 0.253 µM) of 0.989, a relative viability ([12]; first compound 0.8 µM) of 0.9 and a relative viability ([12]; first compound 2.53 µM) of 0.809. It also gave a relative viability ([13]; first compound 0.08 µM) of 1.21, a relative viability ([13]; first compound 0.253 µM) of 1.13 and a relative viability ([13]; first compound 0.8 µM) of 1.09. It also gave a relative viability ([13]; first compound 2.53 µM) of 1.16, a relative viability ([14]; first compound 0.08 µM) of 0.887 and a relative viability ([14]; first compound 0.253 µM) of 1.09. The relative viability ([14]; first compound 0.8 µM) was 0.901, the relative viability ([14]; first compound 2.53 µM) was 0.756 and the relative viability ([15]; first compound 0.08 µM) was 1. The relative viability ([15]; first compound 0.253 µM) was 0.855, the relative viability ([15]; first compound 0.8 µM) was 0.948 and the relative viability ([15]; first compound 2.53 µM) was 0.892. It also gave a relative viability ([16]; first compound 0.08 µM) of 0.318, a relative viability ([16]; first compound 0.8 µM) of 0.3 and a relative viability ([16]; first compound 2.53 µM) of 0.271. It also gave a relative viability ([17]; first compound 0.08 µM) of 0.968, a relative viability ([17]; first compound 0.253 µM) of 0.843 and a relative viability ([17]; first compound 0.8 µM) of 0.862. For the same molecule, the relative viability ([17]; first compound 2.53 µM) was 0.827, the relative viability ([18]; first compound 0.08 µM) was 1.03 and the relative viability ([18]; first compound 0.253 µM) was 1.04. The relative viability ([18]; first compound 0.8 µM) was 1.04, the relative viability ([18]; first compound 2.53 µM) was 0.886 and the relative viability ([19]; first compound 0.08 µM) was 0.0604. It also gave a relative viability ([19]; first compound 0.253 µM) of 0.0746, a relative viability ([19]; first compound 0.8 µM) of 0.0568 and a relative viability ([20]; first compound 0.08 µM) of 0.92. The relative viability ([20]; first compound 0.253 µM) was 0.911, the relative viability ([20]; first compound 0.8 µM) was 0.949 and the relative viability ([20]; first compound 2.53 µM) was 0.972. It also gave a relative viability ([21]; first compound 0.08 µM) of 1.01, a relative viability ([21]; first compound 0.253 µM) of 0.945 and a relative viability ([21]; first compound 0.8 µM) of 0.948. It also gave a relative viability ([21]; first compound 2.53 µM) of 0.899.
